# “And” between values parts separate entries of the source, which are not always exact repeats. Equal entries are not always repeated. Toxic doses and inconclusive results are not listed.
# Test system: P388 leukemia ip, CD2F1 mice, survival T/C
# Assay: NCI In Vivo Anticancer Drug Screen. Data for tumor model P388 Leukemia (intraperitoneal) in CD2F1 (CDF1) mice
# Conditions: endpoint: median survival time, higher = longer survival
# How it was run: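 Mice carrying the transplanted tumor received test compound or vehicle. Survival was recorded in each group, and the value is the treated-group measurement divided by that of the vehicle-treated control group.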
# [1] = dose: 60.0 mg/kg/injection, schedule: Q01DX005 (ip), vehicle: saline with Tween-80
# [2] = dose: 120.0 mg/kg/injection, schedule: Q01DX005 (ip), vehicle: saline with Tween-80
# [3] = dose: 240.0 mg/kg/injection, schedule: Q01DX005 (ip), vehicle: saline with Tween-80
# [4] = dose: 50.0 mg/kg/injection, schedule: Q01DX009 (ip), vehicle: other
# [5] = dose: 100.0 mg/kg/injection, schedule: Q01DX009 (ip), vehicle: other
# [6] = dose: 200.0 mg/kg/injection, schedule: Q01DX009 (ip), vehicle: other
# [7] = dose: 25.0 mg/kg/injection, schedule: Q01DX009 (ip), vehicle: other
# [8] = dose: 50.0 mg/kg/injection, schedule: Q01DX009 (ip), vehicle: saline with Tween-80
# [9] = dose: 100.0 mg/kg/injection, schedule: Q01DX009 (ip), vehicle: saline with Tween-80
# [10] = dose: 200.0 mg/kg/injection, schedule: Q01DX009 (ip), vehicle: saline with Tween-80
# [11] = dose: 25.0 mg/kg/injection, schedule: Q01DX009 (ip), vehicle: saline with Tween-80
# [12] = dose: 25.0 mg/kg/injection, schedule: Q04DX003 (ip), vehicle: saline with Tween-80
# [13] = dose: 50.0 mg/kg/injection, schedule: Q04DX003 (ip), vehicle: saline with Tween-80
smiles,measurement,setting,value
COc1cc(OC)c(-c2cc(C(=O)O)c3cc4ccccc4cc3n2)c(OC)c1,T/C,"dose: 50.0 mg/kg/injection, schedule: Q01DX009 (ip), vehicle: Klucel (hydroxypropylcellulose) (HPC)",89 % of control
same,T/C,"dose: 100.0 mg/kg/injection, schedule: Q01DX009 (ip), vehicle: Klucel (hydroxypropylcellulose) (HPC)",99 % of control
same,T/C,"dose: 200.0 mg/kg/injection, schedule: Q01DX009 (ip), vehicle: Klucel (hydroxypropylcellulose) (HPC)",97 % of control
CC(=O)Nc1ccc2c(C)cc(Cl)nc2c1,T/C,[1],95 % of control
same,T/C,[2],90 % of control
same,T/C,[3],89 % of control
O=c1[nH]c(=O)n(C2CC(O)C(CO)O2)cc1C(F)(F)F (stereo unspecified),T/C,"dose: 20.0 mg/kg/injection, schedule: Q01DX009 (ip), vehicle: saline with Tween-80",111 % of control
same,T/C,"dose: 31.25 mg/kg/injection, schedule: Q01DX009 (ip), vehicle: Klucel (hydroxypropylcellulose) (HPC)",120 % of control
same,T/C,"dose: 40.0 mg/kg/injection, schedule: Q01DX009 (ip), vehicle: saline with Tween-80",117 % of control
same,T/C,"dose: 62.5 mg/kg/injection, schedule: Q01DX009 (ip), vehicle: Klucel (hydroxypropylcellulose) (HPC)",151 % of control
same,T/C,"dose: 80.0 mg/kg/injection, schedule: Q01DX009 (ip), vehicle: saline with Tween-80",119 % of control
same,T/C,"dose: 125.0 mg/kg/injection, schedule: Q01DX005 (ip), vehicle: Klucel (hydroxypropylcellulose) (HPC)",152 % of control
same,T/C,"dose: 125.0 mg/kg/injection, schedule: Q01DX009 (ip), vehicle: Klucel (hydroxypropylcellulose) (HPC)",178 % of control and 183 % of control
same,T/C,"dose: 160.0 mg/kg/injection, schedule: Q01DX009 (ip), vehicle: saline with Tween-80",111 % of control
same,T/C,"dose: 250.0 mg/kg/injection, schedule: Q01DX005 (ip), vehicle: Klucel (hydroxypropylcellulose) (HPC)",161 % of control
same,T/C,"dose: 250.0 mg/kg/injection, schedule: Q01DX009 (ip), vehicle: Klucel (hydroxypropylcellulose) (HPC)",176 % of control
same,T/C,"dose: 320.0 mg/kg/injection, schedule: Q01DX009 (ip), vehicle: saline with Tween-80",102 % of control
same,T/C,"dose: 500.0 mg/kg/injection, schedule: Q01DX005 (ip), vehicle: Klucel (hydroxypropylcellulose) (HPC)",151 % of control
same,T/C,"dose: 500.0 mg/kg/injection, schedule: Q01DX009 (ip), vehicle: Klucel (hydroxypropylcellulose) (HPC)",100 % of control and 104 % of control
same,T/C,"dose: 640.0 mg/kg/injection, schedule: Q01DX009 (ip), vehicle: saline with Tween-80",88 % of control
Cc1ccc(S)c(C(O)(C(F)(F)F)C(F)(F)F)c1,T/C,[4],100 % of control
same,T/C,[5],100 % of control
same,T/C,[6],100 % of control
N#CN(Cc1ccccc1)C(c1ccccc1)(c1ccccc1)c1ccccc1.[I][Sn]([c]1ccccc1)([c]1ccccc1)[c]1ccccc1,T/C,"dose: 3.12 mg/kg/injection, schedule: Q01DX005 (ip), vehicle: saline with Tween-80",98 % of control
same,T/C,"dose: 6.25 mg/kg/injection, schedule: Q01DX005 (ip), vehicle: saline with Tween-80",92 % of control
Cc1c(COC(=O)NC2CCCCC2)c(COC(=O)NC2CCCCC2)c2c3ccccc3c3ccccc3n12,T/C,"dose: 12.5 mg/kg/injection, schedule: Q01DX009 (ip), vehicle: distilled water + Tween-80",106 % of control
same,T/C,"dose: 25.0 mg/kg/injection, schedule: Q01DX009 (ip), vehicle: distilled water + Tween-80",100 % of control and 93 % of control
same,T/C,"dose: 50.0 mg/kg/injection, schedule: Q01DX009 (ip), vehicle: distilled water + Tween-80",101 % of control and 106 % of control
same,T/C,"dose: 100.0 mg/kg/injection, schedule: Q01DX009 (ip), vehicle: distilled water + Tween-80",101 % of control and 110 % of control
same,T/C,"dose: 200.0 mg/kg/injection, schedule: Q01DX009 (ip), vehicle: distilled water + Tween-80",110 % of control
Oc1c(Cl)cc(Cl)cc1CN1CCOCC1,T/C,"dose: 50.0 mg/kg/injection, schedule: Q01DX009 (ip), vehicle: suspension in saline",89 % of control
same,T/C,"dose: 100.0 mg/kg/injection, schedule: Q01DX009 (ip), vehicle: suspension in saline",87 % of control
same,T/C,"dose: 200.0 mg/kg/injection, schedule: Q01DX009 (ip), vehicle: suspension in saline",98 % of control
same,T/C,"dose: 400.0 mg/kg/injection, schedule: Q01DX009 (ip), vehicle: suspension in saline",109 % of control
c1ccc2[nH]c(N=Nc3cccc4ccccc34)cc2c1,T/C,[7],93 % of control and 95 % of control
same,T/C,[4],100 % of control
same,T/C,[8],99 % of control
same,T/C,[5],100 % of control and 94 % of control
same,T/C,[9],108 % of control and 115 % of control
same,T/C,[6],98 % of control and 100 % of control
same,T/C,[10],115 % of control
same,T/C,"dose: 400.0 mg/kg/injection, schedule: Q01DX009 (ip), vehicle: saline with Tween-80",98 % of control
COc1ccc2c3c(cnc2c1)C(=O)CCC3,T/C,"dose: 50.0 mg/kg/injection, schedule: Q01DX005 (ip), vehicle: saline with Tween-80",104 % of control
same,T/C,"dose: 100.0 mg/kg/injection, schedule: Q01DX005 (ip), vehicle: saline with Tween-80",101 % of control
same,T/C,"dose: 200.0 mg/kg/injection, schedule: Q01DX005 (ip), vehicle: saline with Tween-80",96 % of control
Cn1c(=O)c2c(ncn2-c2ccc(N)cc2Cl)n(C)c1=O,T/C,"dose: 25.0 mg/kg/injection, schedule: Q01DX005 (ip), vehicle: distilled water + alcohol",100 % of control
same,T/C,"dose: 50.0 mg/kg/injection, schedule: Q01DX005 (ip), vehicle: distilled water + alcohol",100 % of control and 101 % of control
same,T/C,"dose: 100.0 mg/kg/injection, schedule: Q01DX005 (ip), vehicle: distilled water + alcohol",104 % of control
same,T/C,"dose: 200.0 mg/kg/injection, schedule: Q01DX005 (ip), vehicle: distilled water + alcohol",99 % of control
O=C1OC2C(I)C3CC1C2C3 (stereo unspecified),T/C,[11],100 % of control
same,T/C,[12],104 % of control
same,T/C,[8],110 % of control
same,T/C,[13],104 % of control
COc1ccc(/C=N/NC(=O)c2ccc(Cl)cc2Cl)cc1OC,T/C,[1],96 % of control
same,T/C,[2],96 % of control
same,T/C,[3],92 % of control
Nc1nc2c(c(=O)[nH]1)NC(CCNc1ccc(C(=O)O)cc1)CN2 (stereo unspecified),T/C,"dose: 12.5 mg/kg/injection, schedule: Q01DX009 (ip), vehicle: saline with Tween-80",104 % of control
same,T/C,"dose: 12.5 mg/kg/injection, schedule: Q04DX003 (ip), vehicle: saline with Tween-80",90 % of control
same,T/C,[11],113 % of control
same,T/C,[12],95 % of control
same,T/C,[13],113 % of control
O=C(CC1NCCCC1O)Cn1cnc2ccccc2c1=O (stereo unspecified),T/C,"dose: 1.0 mg/kg/injection, schedule: Q01DX009 (ip), vehicle: distilled water + alcohol",116 % of control
same,T/C,"dose: 2.0 mg/kg/injection, schedule: Q01DX009 (ip), vehicle: distilled water + alcohol",107 % of control
same,T/C,"dose: 4.0 mg/kg/injection, schedule: Q01DX009 (ip), vehicle: distilled water + alcohol",107 % of control
CCCCONc1ccnc(=O)[nH]1,T/C,"dose: 37.5 mg/kg/injection, schedule: Q01DX001 (ip), vehicle: saline",100 % of control
same,T/C,"dose: 75.0 mg/kg/injection, schedule: Q01DX001 (ip), vehicle: saline",100 % of control
same,T/C,"dose: 150.0 mg/kg/injection, schedule: Q01DX001 (ip), vehicle: saline",107 % of control
COc1cc(CC2c3cc(OC)c(OC)cc3CCN2C)c(NC(=O)c2ccc(C(=O)Nc3cc(OC)c(OC)cc3CC3c4cc(OC)c(OC)cc4CCN3C)cc2)cc1OC (stereo unspecified),T/C,"dose: 12.5 mg/kg/injection, schedule: Q01DX009 (ip), vehicle: other",90 % of control
same,T/C,[7],92 % of control
same,T/C,[4],86 % of control
same,T/C,[6],92 % of control
same,T/C,"dose: 400.0 mg/kg/injection, schedule: Q01DX009 (ip), vehicle: other",104 % of control
COC1CCC(COS(=O)(=O)c2ccc(C)cc2)O1 (stereo unspecified),T/C,[8],105 % of control
same,T/C,[9],100 % of control
same,T/C,[10],103 % of control
COc1ncnc2c1ccn2C1OC(CO)C(O)C1O (stereo unspecified),T/C,"dose: 6.25 mg/kg/injection, schedule: Q01DX005 (ip), vehicle: Klucel (hydroxypropylcellulose) (HPC)",107 % of control
same,T/C,"dose: 12.5 mg/kg/injection, schedule: Q01DX005 (ip), vehicle: Klucel (hydroxypropylcellulose) (HPC)",89 % of control
CCNC(=NC)c1ccc(NC(=O)c2ccc(C(=O)Nc3ccc(C(=NC)NCC)cc3)cc2)cc1,T/C,"dose: 1.5 mg/kg/injection, schedule: Q04DX003 (ip), vehicle: saline with Tween-80",95 % of control
same,T/C,"dose: 3.0 mg/kg/injection, schedule: Q01DX009 (ip), vehicle: saline with Tween-80",172 % of control
same,T/C,"dose: 3.0 mg/kg/injection, schedule: Q04DX003 (ip), vehicle: saline with Tween-80",100 % of control
same,T/C,"dose: 6.0 mg/kg/injection, schedule: Q04DX003 (ip), vehicle: saline with Tween-80",109 % of control

# Source: PubChem BioAssay AID330 (DTP/NCI, 2004)
